According to US11690818B2, “Drug containing liver targeting specific ligand and thyroid hormone receptor agonist” (priority 2018, dated 2023):

How the values were obtained:
db/db mice [1] = assay: Example 4: serum TC, LDL and TG in db/db mice; type: in vivo; conditions: subcutaneous injection daily for 21 days, Kylo-0100 13.5, Kylo-0101 48.4, Kylo-0102 43.3, Kylo-0103 43.3 μg/kg, vs saline control group
Description: (§1) The mice needed to adapt to the environment before the experiment, and healthy mice were selected as test animals, and reared in IVC cages at a density of 5 animals/cage with the litter being changed twice a week.
(§2) The body weight was weighed twice a week, and the administration was carried out continuously for 21 days. After the last administration, the mice were fasted overnight for 15-16 hours, sacrificed by CO2 anesthesia. The blood was collected by cardiac puncture, left to stand at room temperature for 2 hours, and centrifuged on a low temperature centrifuge at 3000 RPM for 10 minutes to collect serum, which was then stored in a −80° C. refrigerator for later use. The contents of total cholesterol (TC), low-density lipoprotein (LDL) and triglyceride (TG) in the serum were measured on a blood biochemical analyzer.

db/db mice [2] = assay: Example 4: bone mineral density and body weight of db/db mice; type: in vivo; conditions: Kylo-0100 13.5, Kylo-0101 48.4 μg/kg sc daily
Description: as §1
as §2, with “After the last administration, the mice were fasted overnight for 15-16 hours, sacrificed by CO2 anesthesia.” left out
On the 18th day of the administration, the mice were intraperitoneally injected with the anesthetic (xylazine combined with ketamine, 10 ml/Kg, IP), and the bone mineral density and body fat ratio of the mice were measured on a bone density meter.

SMILES | serum LDL level reduction rate (db/db mice [1]) | serum TC level reduction rate (db/db mice [1]) | serum TG level reduction rate (db/db mice [1]) | bone mineral density (BMD) (db/db mice [2]; 18th day of administration, vs saline control group) | effect on the body weight of mice (db/db mice [2]; 21 days)
CC(=O)NC1C(OCCCCC(=O)NCCCNC(=O)CCOCC(COCCC(=O)NCCCNC(=O)CCCCOC2OC(CO)C(O)C(O)C2NC(C)=O)(COCCC(=O)NCCCNC(=O)CCCCOC2OC(CO)C(O)C(O)C2NC(C)=O)NC(=O)CCCCCNC(=O)[C@H](Cc2cc(I)c(Oc3ccc(O)c(I)c3)c(I)c2)NC(=O)OC(C)(C)C)OC(CO)C(O)C1O (stereo partly shown) [Kylo-0103] | 15.25% | 44.37% | 43.94% |  | 
N[C@@H](Cc1cc(I)c(Oc2ccc(O)c(I)c2)c(I)c1)C(=O)O [Kylo-0100, triiodothyronine] |  | 34.68% | 42.55% | significantly lower than that of the saline control group | significant effect
